This is an account of results in BindingDB's records for doi:10.1016/j.bmc.2019.115235 (Shandong University, 2020).

Molecules are shown by their SMILES.

Assay [1] has as its target T1, Hypoxia-inducible factor 1-alpha (Homo sapiens, UniProt Q16665). Nature of the assay: […] of HIF1 in human T47D cells.
For assay [2], the target named is T1, Hypoxia-inducible factor 1-alpha. Nature of the assay: […] of HIF1 in human T47D cells after 30 mins by luciferase reporter gene assay.

T1 sequence (Q16665 whole entry): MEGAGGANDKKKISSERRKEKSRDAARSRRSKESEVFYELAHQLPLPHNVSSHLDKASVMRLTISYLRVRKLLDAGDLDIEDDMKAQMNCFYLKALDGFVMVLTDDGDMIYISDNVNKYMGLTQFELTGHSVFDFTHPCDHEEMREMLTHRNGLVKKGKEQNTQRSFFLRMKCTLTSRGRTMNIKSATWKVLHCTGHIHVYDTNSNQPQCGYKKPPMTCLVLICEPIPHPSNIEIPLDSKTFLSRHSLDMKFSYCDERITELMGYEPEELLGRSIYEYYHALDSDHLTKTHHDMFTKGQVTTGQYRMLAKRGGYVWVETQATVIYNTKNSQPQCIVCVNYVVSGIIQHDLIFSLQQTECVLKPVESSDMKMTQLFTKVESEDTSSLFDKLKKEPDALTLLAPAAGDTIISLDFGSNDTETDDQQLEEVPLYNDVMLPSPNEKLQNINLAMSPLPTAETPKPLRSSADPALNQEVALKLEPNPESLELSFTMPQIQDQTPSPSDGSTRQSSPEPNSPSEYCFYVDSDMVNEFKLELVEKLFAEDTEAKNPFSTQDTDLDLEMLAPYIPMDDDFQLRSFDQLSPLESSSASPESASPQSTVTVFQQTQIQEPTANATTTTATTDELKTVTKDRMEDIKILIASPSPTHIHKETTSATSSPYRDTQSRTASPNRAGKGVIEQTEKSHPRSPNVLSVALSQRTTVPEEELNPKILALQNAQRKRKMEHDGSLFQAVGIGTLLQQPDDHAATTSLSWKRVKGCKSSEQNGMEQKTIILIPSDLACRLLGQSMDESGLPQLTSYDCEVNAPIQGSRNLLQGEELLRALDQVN

Regarding `COc1ccc([C@@H](O)[C@@H](C)Oc2ccc([C@H]3O[C@H](c4ccc(OC)c(OC)c4)[C@H](C)[C@H]3C)cc2OC)cc1OC`, 20 nM corresponded to half-maximal inhibition in assay [1] (IC50).
`COc1ccc([C@@H](O)[C@@H](C)Oc2ccc([C@@H]3CC[C@H](c4ccc(O[C@H](C)[C@H](O)c5ccc(OC)c(OC)c5)c(OC)c4)C3)cc2OC)cc1OC` registered a 50% inhibitory concentration (IC50) in assay [2] of 3 nM.

The IC50 is the concentration that inhibits the measured activity by half.
